Legend:
IL-1β = assay: ELISA of IL-1β secretion from LPS-stimulated RAW 264.7 cells; type: cell-based, mouse; settings: compound 50 μM 24 h, then LPS 1 μg/mL 2 h (FIG. 8)
Experimental: RAW 264.7 cells were pretreated with each compound (50 μM) for 24 h followed by LPS (1 μg/mL) stimulation for another 2 h. The concentrations of IL-1β in RAW 264.7 cell culture supernatants were measured by ELISA kits and the inhibition rate of compound on the secretion of each pro-inflammatory cytokine was calculated. Data from three independent experiments were expressed as means±SD. *P<0.05, **P<0.01 compared with LPS-stimulated group.
Cell culture The RAW 264.7 cell line was purchased from the Cell Bank of Shanghai Institute of Biochemistry & Cell Biology at the Chinese Academy of Sciences (Shanghai, China) and cultured in DMEM supplemented with 10% (v/v) fetal bovine serum (FBS), 100 U/ml penicillin and 100 […], in a stable environment with 5% CO2 at 37° C. Before used in the following in vitro experiments, RAW 264.7 cells were pretreated with synthesized flavan-3-ol (25, 50 μM) for 24 h followed by LPS (1 μg/mL) stimulation for another 2 h.
Enzyme-Linked Immunosorbent Assay (ELISA) RAW 264.7 cells were treated with these synthesized flavan-3-ols (25, 50 μM) for 24 h followed by LPS (1 μg/mL) stimulation for another 2 h and the culture supernatant was collected. The concentrations of IL-1β, IL-6 and TNF-α in the culture supernatant of RAW 264.7 cells were determined according to the manufacturer's instructions of the Duo-set enzyme linked immune sorbent assay kits, purchased from R&D Systems Co. Ltd. (Minneapolis, MN, USA).
The increased pro-inflammatory cytokines production in RAW 264.7 cells has been reported to play an influential role in the inflammation response. To evaluate the anti-inflammatory effects of these flavan-3-ols in vitro, ELISA kits were employed to investigate their effects on the LPS (lipopolysaccharide)-induced pro-inflammatory cytokines production of RAW 264.7 cells. After treating with the flavan-3-ols (25 and 50 μM) and stimulated by LPS, the levels of three main pro-inflammation cytokines including IL-1β ([…]), IL-6 (interleukin-6), and TNF-α (tumor necrosis factor-α) in culture supernatant from RAW 264.7 cells were measured by ELISA kits, and then the inhibition rates of the flavan-3-ols on the secretion of each pro-inflammatory cytokine were calculated by the formula shown as follows.
[formula] In this formula, “L” refers to “the pro-inflammatory cytokine level in cell culture supernatant of LPS-induced group (L)” and “Lc” refers to “the pro-inflammatory cytokine level in cell culture supernatant of compound-treated group (Lc)”. Using this calculation, the reduced levels of pro-inflammation cytokines in the compound treated group would give higher values, which reflect higher inhibition rates.
FIG. 4a-c show the effect of flavan-3-ols on pro-inflammatory cytokine secretion in vitro. RAW 264.7 cells were pretreated with each compound (25, 50 μM) for 24 h followed by LPS (1 μg/mL) stimulation for another 2 h. The concentrations of IL-1β, IL-6, TNF-α in RAW 264.7 cell culture supernatants were measured by ELISA kits and the inhibition rate of compound on the secretion of each pro-inflammatory cytokine was calculated.

[1] = tested on: LPS-stimulated RAW 264.7 cells; assay: RNA-sequencing analysis with GO and KEGG enrichment; type: cell-based, mouse; settings: 50 μM; vs LPS-stimulated group; KEGG-classified inflammation-related genes
Experimental: RNA-sequencing analysis RAW 264.7 cells were treated with each flavan-3-ol (25, 50 μM) for 24 h followed by LPS (1 μg/mL) stimulation for another 2 h. Cells were collected and then directly prepared for cDNAs amplification and RNA-Seq library construction. Total RNA was isolated with TRIzol reagent from each group. A complementary DNA library was prepared and sequencing was performed according to the Illumina standard protocol developed by Suzhou GENEWIZ Biological Technology Co., Ltd. (https://www.genewiz.com). […] After filtering, reference genome and gene model annotation files were downloaded from a genome website browser (NCBI/UCSC/Ensembl). Indexes of the reference genome were built using Bowtie v2.0.6 and paired-end clean reads were aligned to the reference genome using TopHat v2.0.9. Bowtie was used for a BWT (Burrows-Wheeler Transformer) algorithm for mapping reads to the genome and Tophat can generate a database of splice junctions based on the gene model annotation file and thus achieve a better mapping result than other non-splice mapping tools. For the quantification of gene expression level, HTSeq V0.6.1 was used to count the read numbers mapped for each gene. The RPKM of each gene was calculated based on the gene read counts mapped to this gene. A differential expression analysis was performed using the DESeq R package (1.10.1). For clustering, the inventors clustered different samples to see the correlation using hierarchical clustering distance method with the function of heatmap, SOM (Self-organization mapping) and k means using silhouette coefficient to adapt the optimal classification with default parameter in R. The complete RNA-seq datasets in this manuscript captioned has been deposited at GEO database (http://www.ncbi.nlm.nih.gov/geo/) under accession ID GSE181052.
Gene ontology (GO) and KEGG enrichment analysis GO enrichment analysis of differentially expressed genes was implemented by the GOseq R Package, in which gene length bias was corrected. GO analysis was performed with the DAVID online tool (https://david.ncifcrf.gov/). Top GO categories were selected according to the P-values. Pathways of differentially expressed genes were analyzed by the KEGG database (http://www.kegg.jp/kegg/). The inventors used KOBAS software to test the statistical enrichment of differential expression genes in KEGG pathways.
RNA-seq analysis of downstream genes regulated by flavan-3-ols. […] RNA-seq analysis was performed to further study the effects of compounds 3m, 3o, 3p, 3ae and 3ag on gene transcriptional pathways related to inflammation. RAW 264.7 cells were used in the RNA-seq analysis, in which cells were pretreated with each compound (50 μM) for 24 h followed by LPS (1 μg/mL) stimulation for another 2 h. […] Next, the inventors focused on genes related to inflammatory reactions and inflammation-related diseases (inflammation-related genes) based on the gene and pathway classification of Kyoto Encyclopedia of Genes and Genomes (KEGG database).
To further analyze the functional distribution of differentially-expressed genes in relation to different biological processes, cellular components and molecular functions, gene ontology (GO) enrichment analysis was performed. The histogram of GO enrichment of differentially-expressed genes was presented.
Furthermore, to determine the biochemical metabolic pathways and signal transduction pathways involved in differentially expressed genes regulated by compound 3ag, KEGG pathway analysis was then performed.

Row | Structure (SMILES) | melting point [°C] | inhibition rate of IL-1β secretion compared with enantiomer and racemic form (IL-1β) | inflammation-related genes downregulated [1]
1 | Cc1ccccc1[C@H]1Oc2ccccc2C[C@@H]1O [3j, (2R,3S)-2-(o-tolyl)chroman-3-ol] | 91 to 92 | – | –
2 | Cc1cccc2c1O[C@H](c1ccccc1)[C@@H](O)C2 [3t, (2R,3S)-8-methyl-2-phenylchroman-3-ol] | 68 to 69 | – | –
3 | COc1cccc2c1O[C@H](c1ccccc1)[C@@H](O)C2 [3z, (2R,3S)-8-methoxy-2-phenylchroman-3-ol] | 151 to 152 | – | –
4 | Cc1ccc([C@H]2Oc3ccccc3C[C@@H]2O)cc1 [3b, (2R,3S)-2-(p-tolyl)chroman-3-ol] | 68 to 69 | – | –
5 | Oc1ccc([C@H]2Oc3ccccc3C[C@@H]2O)cc1 [compound 5, (2R,3S)-2-(4-hydroxyphenyl)chroman-3-ol] | 106 to 107 | – | –
6 | C1=C[C@H](c2ccc(OCc3ccccc3)cc2)Oc2ccccc21 [1d, (R)-2-(4-(benzyloxy)phenyl)-2H-chromene] | 92 to 93 | – | –
7 | O[C@H]1Cc2ccccc2O[C@@H]1c1ccc(OCc2ccccc2)cc1 [3d, (2R,3S)-2-(4-(benzyloxy)phenyl)chroman-3-ol] | 113 to 114 | – | –
8 | COc1ccc2c(c1)C[C@H](O)[C@@H](c1ccccc1)O2 [3x, (2R,3S)-6-methoxy-2-phenylchroman-3-ol] | 118 to 119 | – | –
9 | O[C@H]1Cc2ccccc2O[C@@H]1c1ccc(Br)cc1 [3h, (2R,3S)-2-(4-bromophenyl)chroman-3-ol] | 109 to 110 | – | –
10 | COc1cccc2c1C[C@H](O)[C@@H](c1ccccc1)O2 [3w, (2R,3S)-5-methoxy-2-phenylchroman-3-ol] | 116 to 117 | – | –
11 | O[C@H]1Cc2ccccc2O[C@@H]1c1ccc2ccccc2c1 [3m, (2R,3S)-2-(naphthalen-2-yl)chroman-3-ol] | 141 to 142 | higher inhibition rates than their enantiomers | downregulated parts of inflammation-related genes
12 | COCOc1ccc2c(c1)C=C[C@H](c1ccccc1)O2 [1ab, (R)-6-(methoxymethoxy)-2-phenyl-2H-chromene] | 69 to 70 | – | –
13 | Cc1ccc2c(c1)O[C@H](c1ccccc1)[C@@H](O)C2 [3s, (2R,3S)-7-methyl-2-phenylchroman-3-ol] | 95 to 96 | – | –
14 | O[C@H]1Cc2ccccc2O[C@@H]1c1ccco1 [3o, (2S,3S)-2-(furan-2-yl)chroman-3-ol] | 80 to 81 | higher inhibition rates than their enantiomers | downregulated parts of inflammation-related genes
15 | COc1ccc([C@H]2Oc3ccccc3C[C@@H]2O)cc1 [3c, (2R,3S)-2-(4-methoxyphenyl)chroman-3-ol] | 89 to 90 | – | –
16 | COCOc1ccc2c(c1)C[C@H](O)[C@@H](c1ccccc1)O2 [3ab, (2R,3S)-6-(methoxymethoxy)-2-phenylchroman-3-ol] | 65 to 66 | – | –

Row | Structure (SMILES) | melting point [°C] | inhibition rate of IL-1β secretion compared with enantiomer and racemic form (IL-1β) | inflammation-related genes downregulated [1]
17 | Cc1ccc2c(c1)C[C@H](O)[C@@H](c1ccccc1)O2 [3r, (2R,3S)-6-methyl-2-phenylchroman-3-ol] | 109 to 110 | – | –
18 | O[C@H]1Cc2ccccc2O[C@@H]1c1ccc(F)cc1 [3f, (2R,3S)-2-(4-fluorophenyl)chroman-3-ol] | 99 to 100 | – | –
19 | Cc1cc(C)c2c(c1)O[C@H](c1ccccc1)[C@@H](O)C2 [3u, (2R,3S)-5,7-dimethyl-2-phenylchroman-3-ol] | 149 to 150 | – | –
20 | COCOc1ccc([C@H]2Oc3ccccc3C[C@@H]2O)cc1 [3e, (2R,3S)-2-(4-(methoxymethoxy)phenyl)chroman-3-ol] | 97 to 98 | – | –
21 | Oc1ccc2c(c1)C[C@H](O)[C@@H](c1ccccc1)O2 [3ac, (2R,3S)-2-phenylchromane-3,6-diol] | 187 to 188 | – | –
22 | O[C@H]1Cc2cc(Cl)ccc2O[C@@H]1c1ccccc1 [3ae, (2R,3S)-6-chloro-2-phenylchroman-3-ol] | 130 to 131 | higher inhibition rates than their enantiomers | downregulated parts of inflammation-related genes
23 | Cc1cc2c(cc1C)O[C@H](c1ccccc1)[C@@H](O)C2 [3v, (2R,3S)-6,7-dimethyl-2-phenylchroman-3-ol] | 151 to 152 | – | –
24 | O[C@H]1Cc2cc(Cl)ccc2O[C@@H]1c1ccc(Cl)cc1 [3ah, (2R,3S)-6-chloro-2-(4-chlorophenyl)chroman-3-ol] | 138 to 139 | – | –
25 | Cc1cc2c(cc1Cl)C[C@H](O)[C@@H](c1ccccc1)O2 [3af, (2R,3S)-6-chloro-7-methyl-2-phenylchroman-3-ol] | 129 to 130 | – | –
26 | CCC[C@H]1Oc2ccccc2C[C@@H]1O [3p, (2R,3S)-2-propylchroman-3-ol] | – | – | downregulated parts of inflammation-related genes
27 | Cc1cccc([C@H]2Oc3ccccc3C[C@@H]2O)c1 [3k, (2R,3S)-2-(m-tolyl)chroman-3-ol] | 88 to 89 | – | –
28 | Cc1cccc2c1C[C@H](O)[C@@H](c1ccccc1)O2 [3q, (2R,3S)-5-methyl-2-phenylchroman-3-ol] | 116 to 117 | – | –
29 | CCC[C@@H]1Oc2ccccc2C[C@H]1O [3p′, (2S,3R)-2-propylchroman-3-ol] | – | higher inhibition rate of IL-1β secretion than its racemic mixture | –
30 | Cc1cc(C)cc([C@H]2Oc3ccccc3C[C@@H]2O)c1 [3l, (2R,3S)-2-(3,5-dimethylphenyl)chroman-3-ol] | 135 to 136 | – | –
31 | Oc1ccc2c(c1)C=C[C@H](c1ccccc1)O2 [1ac, (R)-2-phenyl-2H-chromen-6-ol] | 81 to 82 | – | –
32 | O[C@H]1Cc2ccccc2O[C@@H]1c1ccc(Cl)cc1 [3g, (2R,3S)-2-(4-chlorophenyl)chroman-3-ol] | 109 to 110 | – | –

— US11952358B2, “Flavan-3-ol analogs and anti-inflammatory activity” (Hong Kong Baptist University, priority 2021, dated 2024)
